Experimental data: ChEMBL document CHEMBL3351804, “Development of 2-aryl substituted quinazolin-4(3H)-one, pyrido[4,3-d]pyrimidin-4(3H)-one and pyrido[2,3-d]pyrimidin-4(3H)-one derivatives as microsomal prostaglandin E(2) synthase-1 inhibitors” (Bioorg Med Chem Lett, 2014)
One block for each compound: values may come before it.

How the values were obtained:
[1] = target: T1, Prostaglandin E synthase (Homo sapiens) (UniProt O14684); assay: Inhibition of human recombinant mPGES-1 expressed in CHO cells using PGH2 as substrate at 10 uM incubated for 10 mins prior to substrate addition measured after 1 min; assay type: cell-based
T1 sequence (whole entry): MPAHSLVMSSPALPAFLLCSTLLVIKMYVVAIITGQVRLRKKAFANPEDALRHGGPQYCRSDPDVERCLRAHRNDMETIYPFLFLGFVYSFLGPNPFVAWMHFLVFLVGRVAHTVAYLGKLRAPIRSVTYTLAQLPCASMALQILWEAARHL

[2] = target: T1, Prostaglandin E synthase (Homo sapiens); assay: Inhibition of human recombinant mPGES-1 expressed in CHO cells using PGH2 as substrate at 1 uM incubated for 10 mins prior to substrate addition measured after 1 min
Prostaglandin E synthase [3] = target: T2, Prostaglandin E synthase (Homo sapiens, UniProt O14684); assay: Inhibition of human recombinant mPGES-1 expressed in CHO cells using PGH2 as substrate incubated for 10 mins prior to substrate addition measured after 1 min
T2 sequence (O14684 whole entry): T1 sequence (whole entry)

[4] = Inhibition of guinea pig recombinant mPGES-1; parameters: species or system Cavia porcellus
Prostaglandin E synthase [5] = target: T2, Prostaglandin E synthase; assay: Inhibition of mPGES-1 in human A549 cells using arachidonic acid as substrate assessed as inhibition of IL-1beta/TNF-alpha-induced PGE2 production incubated for 30 mins prior to substrate addition measured after 30 mins by EIA; assay type: cell-based
Prostaglandin E synthase [6] = target: T2, Prostaglandin E synthase; assay: Inhibition of mPGES-1 in human A549 cells assessed as inhibition of IL-1beta-induced PGE2 production incubated for 30 mins prior to IL-1beta challenge measured after 18 to 24 hrs; assay type: cell-based
Prostaglandin E synthase [7] = target: T2, Prostaglandin E synthase; assay: Inhibition of mPGES-1 in human A549 cells assessed as inhibition of IL-1beta-induced PGE2 production incubated for 30 mins prior to IL-1beta challenge measured after 18 hrs by plate reader analysis; assay type: cell-based
Prostaglandin E synthase [8] = target: T2, Prostaglandin E synthase; assay: Inhibition of mPGES-1 in human whole blood assessed as inhibition of LPS-induced PGE2 production incubated for 30 mins prior to LPS challenge measured after 20 to 24 hrs by LC/MS/MS analysis
Prostaglandin E synthase [9] = target: T2, Prostaglandin E synthase; assay: Inhibition of mPGES-1 in human whole blood assessed as inhibition of LPS-induced PGE2 production after overnight incubation
Prostaglandin E synthase [10] = target: T2, Prostaglandin E synthase; assay: Inhibition of human mPGES-1
Prostaglandin E synthase [11] = target: T2, Prostaglandin E synthase; assay: Inhibition of mPGES-1 in human A549 cells; assay type: cell-based

SMILES: CC(C)C(=O)NCc1ccc(Cl)c(-c2nc3ccccc3c(=O)[nH]2)c1
- inhibition [1]: 67%
- inhibition [2]: 17%

SMILES: COc1ccc2c(=O)[nH]c(-c3cc(CNC(=O)C(C)C)ccc3Cl)nc2c1
- IC50 (Prostaglandin E synthase [3]): 304 nM

SMILES: O=C(Nc1ccc2cnn(-c3ccc(Br)cc3)c(=O)c2c1)c1c(F)cccc1Cl
- IC50 (Prostaglandin E synthase [3]): 179 nM

SMILES: CC(C)C(=O)NCc1ccc(Cl)c(-c2nc3cc(C(F)(F)F)ccc3c(=O)[nH]2)c1
- IC50 (Prostaglandin E synthase [3]): 26 nM

SMILES: N#Cc1cccc(C#N)c1-c1nc2c3ccc(Cl)cc3c3ccccc3c2[nH]1
- IC50 [4]: 0.9 nM

SMILES: CC(C)C(=O)NCc1ccc(Cl)c(-c2nc3cc(Cl)c(-c4ccc(C(F)(F)F)cc4)cc3c(=O)[nH]2)c1
- IC50 (Prostaglandin E synthase [3]): 36 nM

SMILES: CC(C)(C)C(=O)NCc1ccc(Cl)c(C(=O)Nc2ccc3cnn(-c4ccc(C(F)(F)F)cc4)c(=O)c3c2)c1
- IC50 (Prostaglandin E synthase [3]): 5 nM

SMILES: CC(C)(C)C(=O)NCc1ccc(Cl)c(C(=O)Nc2ccnc3c(Nc4ccc(C(F)(F)F)cc4)nsc23)c1
- IC50 (Prostaglandin E synthase [3]): 3 nM

SMILES: O=C(Nc1ccnc2c(Nc3ccc(C(F)(F)F)cc3)nsc12)c1c(F)cccc1Cl
- IC50 (Prostaglandin E synthase [3]): 157 nM

SMILES: CC(C)C(=O)NCc1ccc(Cl)c(-c2nc3cc(N4CCC(C(F)(F)F)CC4)ccc3c(=O)[nH]2)c1
- IC50 (Prostaglandin E synthase [3]): 74 nM

SMILES: O=C(Nc1ccc(C(F)(F)F)cn1)c1cccc(NC(=O)c2ccccc2C(F)(F)F)c1
- IC50 (Prostaglandin E synthase [5]): 500 nM

SMILES: CC(C)C(=O)NCc1ccc(Cl)c(-c2nc3cc(Br)ccc3c(=O)[nH]2)c1
- IC50 (Prostaglandin E synthase [3]): 36 nM

SMILES: CC(C)C(=O)NCc1cnc(C(F)F)c(-c2nc3cc(-c4ccc(C(F)(F)F)cc4)ncc3c(=O)[nH]2)c1
- IC50 (Prostaglandin E synthase [3]): 4 nM
- IC50 (Prostaglandin E synthase [6]): 111 nM

SMILES: CC(C)C(=O)NCc1cnc(C(F)F)c(-c2nc3cc(-c4ccc(C(F)(F)F)cc4)ccc3c(=O)[nH]2)c1
- IC50 (Prostaglandin E synthase [3]): 6 nM
- IC50 (Prostaglandin E synthase [6]): 33 nM

SMILES: CC(C)C(=O)NCc1ccc(Cl)c(-c2nc3cc(F)ccc3c(=O)[nH]2)c1
- inhibition [1]: 98%
- inhibition [2]: 52%

SMILES: Cc1nc(NC(=O)c2cc(CNC(=O)C(C)C)cnc2C(F)F)[nH]c1-c1ccc(C(F)(F)F)cc1
- IC50 (Prostaglandin E synthase [7]): 12 nM
- IC50 (Prostaglandin E synthase [8]): 12 nM

SMILES: CC(C)C(=O)NCc1ccc(Cl)c(-c2nc3cc(N)ccc3c(=O)[nH]2)c1
- inhibition [1]: 70%
- inhibition [2]: 16%

SMILES: CC(C)C(=O)NCc1ccc(Cl)c(-c2nc3cc(-c4ccc(C(F)(F)F)nc4)ccc3c(=O)[nH]2)c1
- IC50 (Prostaglandin E synthase [3]): 16 nM
- IC50 (Prostaglandin E synthase [6]): 23 nM

SMILES: CC(C)C(=O)NCc1ccc(Cl)c(-c2nc3nc(-c4ccc(C(F)(F)F)cc4)ccc3c(=O)[nH]2)c1
- IC50 (Prostaglandin E synthase [9]): 328 nM
- IC50 (Prostaglandin E synthase [3]): 10 nM
- IC50 (Prostaglandin E synthase [6]): 11 nM

SMILES: CC(C)C(=O)NCc1ccc(Cl)c(-c2nc3cc(Cl)c(-c4ccncc4)cc3c(=O)[nH]2)c1
- IC50 (Prostaglandin E synthase [3]): 481 nM

SMILES: CC(C)C(=O)NCc1ccc(Cl)c(-c2nc3ccc(-c4ccc(C(F)(F)F)cc4)cc3c(=O)[nH]2)c1
- IC50 (Prostaglandin E synthase [3]): 55 nM

SMILES: CC(C)C(=O)NCc1ccc(Cl)c(-c2nc3cc(-c4ccc(C(F)(F)F)cc4)ccc3c(=O)[nH]2)c1
- IC50 (Prostaglandin E synthase [9]): 234 nM
- IC50 (Prostaglandin E synthase [3]): 7 nM
- IC50 (Prostaglandin E synthase [6]): 10 nM

SMILES: CC(C)C(=O)NCc1ccc(Cl)c(-c2nc3cc(C4CC4)ccc3c(=O)[nH]2)c1
- IC50 (Prostaglandin E synthase [3]): 58 nM

SMILES: COCc1nc2c(C(=O)Nc3cccc(Cl)c3C)cc(NC(=O)c3c(Cl)cccc3C(F)(F)F)cc2[nH]1
- IC50 (Prostaglandin E synthase [10]): 0.1 nM
- IC50 (Prostaglandin E synthase [11]): 1.2 nM

SMILES: CC(C)C(=O)NCc1ccc(Cl)c(-c2nc3cc([N+](=O)[O-])ccc3c(=O)[nH]2)c1
- IC50 (Prostaglandin E synthase [3]): 63 nM

SMILES: CC(C)C(=O)NCc1ccc(Cl)c(-c2nc3cc(C(N)=O)ccc3c(=O)[nH]2)c1
- inhibition [1]: 16%
- inhibition [2]: 14%

Other lines, results leading:

- IC50 (Prostaglandin E synthase [3]): 111 nM
SMILES: COc1cc2c(=O)[nH]c(-c3cc(CNC(=O)C(C)C)ccc3Cl)nc2cc1Cl

- IC50 (Prostaglandin E synthase [3]): 243 nM
SMILES: CC(=O)O[C@H]1CCN(c2cc3c(=O)[nH]c(-c4cc(CNC(=O)C(C)C)ccc4Cl)nc3cc2Cl)C1

- IC50 (Prostaglandin E synthase [3]): 713 nM
SMILES: CC(C)C(=O)NCc1ccc(Cl)c(-c2nc3cc(Cl)c(N4CCC(O)CC4)cc3c(=O)[nH]2)c1

- inhibition [1]: 91%
- inhibition [2]: 42%
SMILES: CC(C)C(=O)NCc1ccc(Cl)c(-c2nc3cc(Cl)c(N4CC[C@H](O)C4)cc3c(=O)[nH]2)c1

- inhibition [1]: 74%
- inhibition [2]: 21%
SMILES: CC(C)C(=O)NCc1ccc(Cl)c(-c2nc3cc(NC(=O)C4CC4)ccc3c(=O)[nH]2)c1

- inhibition [1]: 75%
- inhibition [2]: 41%
SMILES: CC(C)C(=O)NCc1ccc(Cl)c(-c2nc3cc(Cl)c(N4CCN(C)CC4)cc3c(=O)[nH]2)c1

- inhibition [1]: 95%
- inhibition [2]: 67%
SMILES: CC(C)C(=O)NCc1ccc(Cl)c(-c2nc3cc(Cl)c(N4CC[C@@H](O)C4)cc3c(=O)[nH]2)c1

- IC50 (Prostaglandin E synthase [3]): 248 nM
SMILES: CC(=O)O[C@@H]1CCN(c2cc3c(=O)[nH]c(-c4cc(CNC(=O)C(C)C)ccc4Cl)nc3cc2Cl)C1

- IC50 (Prostaglandin E synthase [3]): 42 nM
SMILES: CC(C)C(=O)NCc1ccc(Cl)c(-c2nc3cc(Cl)ccc3c(=O)[nH]2)c1

- IC50 (Prostaglandin E synthase [3]): 59 nM
SMILES: CC(C)C(=O)NCc1ccc(Cl)c(-c2nc3cc(Cl)c(N4CC(C(=O)NC(C)(C)C)C4)cc3c(=O)[nH]2)c1

- inhibition [1]: 79%
- inhibition [2]: 30%
SMILES: CC(C)C(=O)NCc1ccc(Cl)c(-c2nc3cc(Cl)c(N4CCNC(=O)C4)cc3c(=O)[nH]2)c1

- inhibition [1]: 76%
- inhibition [2]: 28%
SMILES: CNC(=O)C1CCN(c2cc3c(=O)[nH]c(-c4cc(CNC(=O)C(C)C)ccc4Cl)nc3cc2Cl)CC1

- IC50 (Prostaglandin E synthase [3]): 261 nM
SMILES: CC(C)C(=O)NCc1ccc(Cl)c(-c2nc3cc(Cl)c(N4CCOCC4)cc3c(=O)[nH]2)c1

- IC50 (Prostaglandin E synthase [3]): 24 nM
SMILES: CC(C)C(=O)NCc1ccc(Cl)c(-c2nc3cc(Cl)c(N4CCC(C(F)F)CC4)cc3c(=O)[nH]2)c1

- IC50 (Prostaglandin E synthase [3]): 32 nM
SMILES: CC(C)C(=O)NCc1ccc(Cl)c(-c2nc3cc(Cl)c(C4CC4)cc3c(=O)[nH]2)c1
